The values that follow come from article PMC9019904, “AD Informer Set: Chemical tools to facilitate Alzheimer's disease drug discovery” (Alzheimer's & Dementia : Translational Research & Clinical …, 2022).

The subject of experiment [1] is BV2 (mouse microglia) cell line. The experiment in a line: pHrodo-myelin phagocytosis/cell viability high content imaging assay: viability (cell count, nuclear area, nuclear intensity). The conditions noted are these: 48 hours treatment. The procedure, abridged: (§1)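 10 μM single dose, 48 h total; pHrodo-myelin present final 20 h. Read-out: automated imaging, total cell count/well, mean nuclear intensity/cell. n=2, normalized to untreated wells, % control.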

The subject of experiment [2] is HMC3 (human microglia) cell line. Described as above. The conditions noted are these: 48 hours treatment. In outline:
as §1

Experiment [3] deals with BV2 (mouse microglia) cell line. The experiment in a line: pHrodo-myelin phagocytosis/cell viability high content imaging assay: phagocytosis signal. The experiment is classed as cell-based. The procedure, abridged:
(§2)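 Simultaneous phagocytosis/viability imaging at approximately 22 h after adding pHrodo-myelin. Rising intensity flagged early apoptosis and falling intensity later apoptosis.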

In experiment [4] the test system is HMC3 (human microglia) cell line. Described as above. Type of experiment: cell-based. In outline: as §2
The mark [5] stands for this setting: BV2 cells, 10 uM compound, 48 hours treatment, pHrodo-myelin final 20 hours.
The mark [6] stands for this setting: HMC3 cells, 10 uM compound, 48 hours treatment, pHrodo-myelin final 20 hours.

Molecules are shown by their SMILES. Where a SMILES comes first, the peptide text is derived from it. [ ]: non-standard residue; d: D form. The star is where a group is joined. ξ: configuration not given here. ξF = NC(Cc1ccccc1)C(=O)O; Cbz = O=C(OCc1ccccc1)*

In the case of `Cc1cccc(-c2nn3c(c2-c2ccnc4ccc(C(N)=O)cc24)CCC3)n1` [UNC10245080A], in experiment [1] (BV2 cells, 10 uM compound), the “1. Cell count (% control)” value worked out at 99.1 % control, the “2. Nuclear Area (% Control)” value was 108.1 % Control and the “3. Nuclear DNA Intensity (% control)” value was determined as 97.4 % control. Further, in experiment [2] (HMC3 cells, 10 uM compound), the “1. Cell count (% control)” value stood at 126.0 % control, the “2. Nuclear Area (% Control)” value is recorded as 104.6 % Control and the “3. Nuclear DNA Intensity (% control)” value was found to be 85.7 % control. Besides, the “4. Phagocytosis (% control)” value in experiment [3] (setting [5]) was determined as 174.0 % control. For the same compound, the “4. Phagocytosis (% control)” value in experiment [4] (setting [6]) is listed as 85.1 % control.

As for `CCS(=O)(=O)N1CCN(c2ccc(Nc3ncc(C(N)=O)c(NC4CC4)n3)cc2)CC1` [UNC10245084A], in experiment [1] (BV2, compound 10 uM), the “1. Cell count (% control)” value amounted to 6.9 % control, the “2. Nuclear Area (% Control)” value was found to be 115.7 % Control and the “3. Nuclear DNA Intensity (% control)” value is reported as 50.0 % control. Further, in experiment [2] (HMC3, compound 10 uM), the “1. Cell count (% control)” value is given as 54.5 % control, the “2. Nuclear Area (% Control)” value came to 136.2 % Control and the “3. Nuclear DNA Intensity (% control)” value stood at 128.1 % control. For the same compound, in experiment [3] (BV2, compound 10 uM, pHrodo-myelin), the “4. Phagocytosis (% control)” value was determined as 2.3 % control. Also, the “4. Phagocytosis (% control)” value in experiment [4] (HMC3, compound 10 uM, pHrodo-myelin) is 110.4 % control.

Turning to `CC(C)(C)c1cnc(CSc2cnc(NC(=O)C3CCNCC3)s2)o1` [UNC10302585A], in experiment [1] (BV2 cells, 10 uM compound), the “1. Cell count (% control)” value was 5.4 % control, the “2. Nuclear Area (% Control)” value amounted to 123.4 % Control and the “3. Nuclear DNA Intensity (% control)” value was determined as 85.3 % control. In experiment [2] (HMC3 cells, 10 uM compound), the “1. Cell count (% control)” value is 57.0 % control, the “2. Nuclear Area (% Control)” value is reported as 118.9 % Control and the “3. Nuclear DNA Intensity (% control)” value amounted to 102.8 % control. Further, in experiment [3] (setting [5]), the “4. Phagocytosis (% control)” value worked out at 98.5 % control. Moreover, the “4. Phagocytosis (% control)” value in experiment [4] (setting [6]) is given as 156.3 % control.

With `CCCC[C@@H](C=O)NC(=O)[C@H](CC(C)C)NC(=O)OCc1ccccc1` [UNC10302674A], in experiment [1] (BV2 cells, 10 uM compound), the “1. Cell count (% control)” value was found to be 102.6 % control, the “2. Nuclear Area (% Control)” value is 106.4 % Control and the “3. Nuclear DNA Intensity (% control)” value came out at 106.3 % control. For the same compound, in experiment [2] (HMC3 cells, 10 uM compound), the “1. Cell count (% control)” value worked out at 146.0 % control, the “2. Nuclear Area (% Control)” value is on record as 103.5 % Control and the “3. Nuclear DNA Intensity (% control)” value was determined as 93.8 % control. For the same compound, the “4. Phagocytosis (% control)” value in experiment [3] (setting [5]) was found to be 195.1 % control. For the same compound, the “4. Phagocytosis (% control)” value in experiment [4] (setting [6]) turned out to be 69.0 % control.

Regarding `CC(C)[C@H](NC(=O)OCc1ccccc1)C(=O)NC(C=O)Cc1ccccc1` (stereo partly drawn) [UNC10302675A] (Cbz-Val-[ξF]-aldehyde), in experiment [1] (BV2 cells, 10 uM compound), the “1. Cell count (% control)” value was found to be 117.2 % control, the “2. Nuclear Area (% Control)” value was determined as 102.4 % Control and the “3. Nuclear DNA Intensity (% control)” value was 114.8 % control. In addition, in experiment [2] (HMC3 cells, 10 uM compound), the “1. Cell count (% control)” value worked out at 109.7 % control, the “2. Nuclear Area (% Control)” value was 102.5 % Control and the “3. Nuclear DNA Intensity (% control)” value is given as 106.2 % control. Besides, in experiment [3] (setting [5]), the “4. Phagocytosis (% control)” value is recorded as 144.5 % control. In addition, the “4. Phagocytosis (% control)” value in experiment [4] (setting [6]) is 106.9 % control.

On to `O=C(NC1CC1)C(=O)C(Cc1ccccc1)NC(=O)[C@H]1CCC(=O)N1Cc1ccccc1` (stereo partly shown) [UNC10302676A], for which, in experiment [1] (BV2 cells, 10 uM compound), the “1. Cell count (% control)” value is on record as 127.5 % control, the “2. Nuclear Area (% Control)” value amounted to 105.0 % Control and the “3. Nuclear DNA Intensity (% control)” value was found to be 102.8 % control. Also, in experiment [2] (HMC3 cells, 10 uM compound), the “1. Cell count (% control)” value amounted to 123.8 % control, the “2. Nuclear Area (% Control)” value is 98.7 % Control and the “3. Nuclear DNA Intensity (% control)” value amounted to 104.1 % control. Further, the “4. Phagocytosis (% control)” value in experiment [3] (setting [5]) is recorded as 108.4 % control. The “4. Phagocytosis (% control)” value in experiment [4] (setting [6]) was 95.9 % control.

Regarding `COCCOCCOC(=O)N[C@@H](CC(C)C)C(=O)N[C@@H](Cc1ccccc1)C(=O)C(=O)NC1CC1` [UNC10302677A], the “1. Cell count (% control)” value came to 132.7 % control in experiment [1] (BV2 cells, 10 uM compound) and 142.6 % control in experiment [2] (HMC3 cells, 10 uM compound). Also, the “2. Nuclear Area (% Control)” value in experiment [1] (BV2 cells, 10 uM compound) is given as 105.3 % Control; in experiment [2] (HMC3 cells, 10 uM compound), 102.2 % Control. Further, the “3. Nuclear DNA Intensity (% control)” value in experiment [1] (BV2 cells, 10 uM compound) came to 103.4 % control; in experiment [2] (HMC3 cells, 10 uM compound), 91.6 % control. The “4. Phagocytosis (% control)” value is on record as 132.9 % control in experiment [3] (setting [5]) and 70.4 % control in experiment [4] (setting [6]).

With `c1cn2cc(-c3ccc4cn[nH]c4c3)nc(Nc3ccc(N4CCOCC4)cc3)c2n1` [UNC10302678A], the “1. Cell count (% control)” value turned out to be 22.1 % control in experiment [1] (BV2 cells, 10 uM compound) and 74.7 % control in experiment [2] (HMC3 cells, 10 uM compound). Moreover, the “2. Nuclear Area (% Control)” value in experiment [1] (BV2 cells, 10 uM compound) stood at 102.9 % Control; in experiment [2] (HMC3 cells, 10 uM compound), 98.9 % Control. In addition, the “3. Nuclear DNA Intensity (% control)” value came to 164.6 % control in experiment [1] (BV2 cells, 10 uM compound) and 212.8 % control in experiment [2] (HMC3 cells, 10 uM compound). The “4. Phagocytosis (% control)” value in experiment [3] (setting [5]) amounted to 0.6 % control; in experiment [4] (setting [6]) it was 43.6 % control.
